PMC7018972, “Novel and selective inactivators of Triosephosphate isomerase with anti-trematode activity” (Scientific Reports, 2020)
Where two headings read alike, the source gives them in different places.

Columns and labels:
[1] = target: Fasciola hepatica TIM (FhTIM) (Fasciola hepatica, UniProt S4UI50); assay: Inhibition of recombinant FhTIM, coupled enzyme assay; type: biochemical
Procedure, shortened: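 E. coli-expressed FhTIM preincubated with compound 1 h at 37 °C in 100 mM triethanolamine, 10 mM EDTA, pH 7.4, 10% DMSO. Aliquot diluted into coupled assay (1 mM glyceraldehyde-3-phosphate, 0.2 mM NADH, α-glycerol phosphate dehydrogenase, pH 7.4) with NADH decrease at 340 nm, 38 °C. Triplicate, two independent experiments.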

FhTIM = FhTIM (Fasciola hepatica, UniProt S4UI50); assay: Microscale thermophoresis (MST) binding to FhTIM; conditions: 24 °C
Procedure: MST experiments were performed according to the NanoTemper technologies protocol in a Monolith NT.115 (red/blue) instrument (NanoTemper Technologies, München, Germany[36]). With this technique, the diffusion behavior of a labeled protein is measured when an infrared light excites the movement of the protein in capillaries. This behavior is the combination of two effects: the fast, local environment-dependent responses of the fluorophore to the temperature jump and the slower diffusive thermophoresis fluorescence changes. It will be modified when the protein is complexed with increasing amounts of unlabeled partners, leading to titration curves that can be fit for Kd estimation. In practice, FhTIM was labeled with the Monolith His-Tag Labeling Kit RED-tris-NTA (NanoTemper Technologies, München, Germany), as described by the manufacturer. The experiments were performed using 20% and 40% MST power and between 20–80% LED power at 24 °C. The MST traces were recorded using the standard parameters: 5 s MST power off, 30 s MST power on, and 5 s MST power off. The compounds were used at high concentrations (around 5 mM) in the bindings check assay with DMSO at 5% v/v. If the binding check was positive, then the affinity determination was performed with the same experimental settings, with serial 2x dilutions of the compound of interest.

[2] = tested on: newly excysted juvenile (NEJ) F. hepatica; assay: In vitro NEJ treatment; type: cell-based, Fasciola hepatica; conditions: Fasciola hepatica, NEJ
Procedure: F. hepatica metacercariae were acquired from DILAVE, MGAP, Uruguay. NEJ were obtained by in vitro excystement as previously described with minor modifications. Briefly, metacercariae were incubated with 1% sodium hypochlorite for 5 min at room temperature to remove the outer cyst wall and then washed exhaustively with PBS 200 U/mL Penicillin G sulfate, […] streptomycin sulfate, 500 ng/mL amphotericin B, 10 mM HEPES, counted and divided into groups of around 20 parasites that were transferred to 12 wells tissue culture plates. Parasites were maintained at 37 °C, 5% CO2 in modified Basch’s medium. At day 1, compounds were added at the indicated concentrations and 0.5% DMSO was added to control groups; each condition was tested in duplicate. NEJ behavior was monitored under a light microscope (Olympus BX41), every day each well was recorded for a minute in order to assess parasite motility and registered using the following score: 3- normally active; 2- reduced activity (sporadic movement); 1- immotile (dead)[48].

S. mansoni somules = S. mansoni somules phenotypic screen in vitro; type: cell-based, Schistosoma mansoni; conditions: for SOMULES SEVERITY SCORE: Table 2S, 10 uM
Excerpt: (§1) The NMRI isolate of S. mansoni was maintained by passage through Biomphalaria glabrata snails and 3–5 week-old, female Golden Syrian hamsters (Charles River, San Diego, CA) as intermediate and definite hosts, respectively. A dose of 600 infective larvae (cercariae) was used to infect hamsters. The acquisition, preparation and in vitro maintenance of S. mansoni post-infective larvae (schistosomula or somules) and adults have been already described[5],[50],[51]. Vertebrate animal maintenance and handling at the University of California San Diego Animal Care Facility were in accordance with protocols approved by the university’s Institutional Animal Care and Use Committee (IACUC).
Phenotypic screens with somules were performed as described[5],[50],[51]. Initially, 100 μL Basch medium, 100 U/ml penicillin, […] streptomycin, 4% heat-inactivated FBS (Corning Mediatech) and 1 μl compound in DMSO were added to clear, 96-well round-bottomed plates (Costar cat.# 3367). Then, 100 μL of the same medium containing 40–50 somules was added to mix the compound with somules (final concentration of DMSO was 0.5%). Assay plates were placed into plastic boxes humidified with wet tissue and then incubated at 37 °C in a 5% CO2 environment. Somules phenotypes were recorded every 24 h up to 72 h using an inverted microscope (Zeiss Axiovert 40 C).
(§2) Schistosome phenotypic responses were recorded employing a series of ‘descriptors,’ such as rounding, degeneration, overactivity, loss of translucency and changes in motility, as described previously[5],[50],[51],[53]. To allow for comparisons of compound activity, each descriptor was awarded a value of 1 and these were added up to a maximum ‘severity score’ of 4. Evidence of degeneracy or death was awarded the maximum score of 4. Scores were averaged across duplicate wells for each compound (see details in the supporting information).

S. mansoni adults = S. mansoni adults phenotypic screen ex vivo; type: cell-based, Schistosoma mansoni; conditions: Table 2S, 5 uM
Excerpt: as §1
Phenotypic screens with 42-day-old, adult parasites were performed in 24-well plates (Costar cat.# 3526) containing the above medium and approximately five adult males and two females per well. Compound was added in a volume of up to 1 μL DMSO at a concentration of 5 µM (0.05% DMSO final). Assay plates were incubated at 37 °C in a 5% CO2 environment. Parasite phenotypes were recorded at 4, 8 and 24 h using a Zeiss Axiovert 40 C.
as §2

[3] = Figure 1, ranges of inhibitory activity, read-out: IC50 range
[4] = recombinant FhTIM, 1 h incubation with compound at 37 °C, read-out: IC50
[5] = Table 1S, screening of 340 compounds in FhTIM, table head prints no unit, µM per b8/b9, read-out: IC50

Sequence of Fasciola hepatica TIM (FhTIM) (S4UI50 entry or part of it): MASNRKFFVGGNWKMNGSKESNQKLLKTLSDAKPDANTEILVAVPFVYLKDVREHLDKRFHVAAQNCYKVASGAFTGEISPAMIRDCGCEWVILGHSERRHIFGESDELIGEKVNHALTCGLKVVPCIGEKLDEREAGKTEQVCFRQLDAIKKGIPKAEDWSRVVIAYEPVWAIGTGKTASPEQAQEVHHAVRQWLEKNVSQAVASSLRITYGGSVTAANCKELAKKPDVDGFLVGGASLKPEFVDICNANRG
Sequence of FhTIM (S4UI50 entry or part of it): as above

| IC50 [1, 5] | SMILES | other results |
| --- | --- | --- |
| – | O=C1C(=Cc2ccc([N+](=O)[O-])s2)C(=O)N(Cc2ccccc2)S(=O)(=O)N1Cc1ccccc1 [Compound 114] | IC50 [1, 3]: < 50 µM; IC50 [1, 4]: 25 ± 8 µM; Kd (FhTIM): 664 ± 25 µM; IC50 ([2]; incubation time 4 h): 6.5 ± 0.6 µM; S. mansoni somules severity score (S. mansoni somules; Table 2, 72 h, score 0 to maximum 4): 4 (72 h); SOMULES SEVERITY SCORE (S. mansoni somules; 24 h): 0; SOMULES SEVERITY SCORE (S. mansoni somules; 48 h): 3; SOMULES SEVERITY SCORE (S. mansoni somules; 3d): 4 |
| – | COc1cc(/C=C/C(=O)CC(=O)/C=C/c2ccc(O)c(OC)c2)ccc1O [Compound 906] | IC50 ([1]; IC50 (µM), recombinant FhTIM, 1 h incubation with compound at 37 °C): 35 ± 4 µM; IC50 ([1]; IC50 range, Figure 1, ranges of inhibitory activity): < 50 µM; IC50 ([2]; incubation time 4 h): 7 ± 1 µM |
| – | O=C(C=Cc1ccc2ccccc2c1)c1c(O)ccc2ccccc12 [Compound 1254] | IC50 [1, 4]: 50 ± 5 µM; SOMULES SEVERITY SCORE (S. mansoni somules; 24 h): 0; SOMULES SEVERITY SCORE (S. mansoni somules; 48 h): 2; SOMULES SEVERITY SCORE (S. mansoni somules; 3d): 0 |
| > 100 µM | NC1=NS(=O)(=O)N(CCC2CCCCC2)c2nc(-c3ccc(F)cc3)[nH]c21 [Compound 706] | – |
| > 100 µM | Oc1ccccc1CN1N=Cc2ccccc2OB1F [Compound 1198] | – |
| > 100 µM | CNc1ccc(C)cc1[N+](=O)[O-] [Compound 651] | – |
| > 100 µM | [O-][n+]1onc2cc(F)c(F)cc21 [Compound 627] | – |
| > 100 µM | C=CCn1c(-c2ccccc2)csc1=NN=CC=Cc1ccco1 [Compound 276] | – |
| > 100 µM | COC(=O)NN=Cc1ccc2nonc2c1 [Compound 31] | – |
| > 100 µM | O=C(C=CC=Cc1ccco1)C=CC=Cc1ccco1 [Compound 793] | – |
| > 100 µM | Cc1ccc(-c2nsc(=O)[nH]2)cc1 [Compound 191] | FhTIM inhibition in words [1]: non-inhibitor |
| > 100 µM | O=C1C(=Cc2cccs2)CCCC1=Cc1cccs1 [Compound 807] | – |
| > 100 µM | CN1CC(=Cc2ccc(S(=O)(=O)O)o2)C(=O)C(=Cc2ccc(S(=O)(=O)O)o2)C1 [Compound 1286] | – |
| 50 to 100 µM | C=CCN1C(=O)C(CC(=O)O)SC1=NN=Cc1cccs1 (stereo not shown) [Compound 1139] | – |
| > 100 µM | Cc1ccc(-n2c(C#N)c3ccccc3[n+]2[O-])cc1 [Compound 476] | – |
| > 100 µM | COc1nn(CCCCCN(C)C)c2ccc([N+](=O)[O-])cc12 [Compound 469] | – |
| – | CN(C)Cc1ccccc1Cn1nc(O)c2cc([N+](=O)[O-])ccc21 [Compound 482] | IC50 [1, 3]: < 50 µM; IC50 [1, 4]: 30 ± 3 µM |
| > 100 µM | NC(=S)NN=Cc1ccc([N+](=O)[O-])s1 [Compound 283] | – |
| > 100 µM | CN(C)c1ccncc1 [Compound 1101] | – |
| – | CS(=O)(=O)c1nc2cc(Oc3cccc(Cl)c3Cl)c(Cl)cc2[nH]1 [Compound 1293, 6-chloro-5-(2,3-dichlorophenoxy)-2-(methylsulfonyl)-1H-benzo[d]imidazole, reference compound] | IC50 ([2]; incubation time 48 h): 50 µM |
| < 25 µM | O=C1C(=Cc2ccc([N+](=O)[O-])o2)C(=O)N(Cc2ccccc2)S(=O)(=O)N1Cc1ccccc1 [Compound 116] | IC50 [1, 3]: < 50 µM; IC50 [1, 4]: 5 ± 1 µM; IC50 ([2]; incubation time 72 h): > 50 µM |
| > 100 µM | NC1=NS(=O)(=O)N=C(N)C1=Cc1ccc([N+](=O)[O-])o1 [Compound 117] | – |
| > 100 µM | C=CCn1c(C(=O)NN2CCOCC2)csc1=NN=CC=Cc1ccco1 [Compound 1124] | – |

| IC50 [1, 5] | SMILES | other results |
| --- | --- | --- |
| > 100 µM | CN1CC(=CC=Cc2ccco2)C(=O)C(=CC=Cc2ccco2)C1 [Compound 1282] | – |
| > 100 µM | C=CCn1c(C(=O)CN2CCN(Cc3ccccc3)CC2)csc1=NN=CC=Cc1ccco1 [Compound 1114] | – |
| > 100 µM | Cc1nnc[n+]([O-])c1C=Cc1ccc2c(c1)OCO2 [Compound 216] | – |
| > 100 µM | C=CCNC(=S)NN=Cc1ccco1 [Compound 69] | – |
| > 100 µM | O=[N+]([O-])c1ccc(C=Cc2ccc3nonc3c2)cc1 [Compound 584] | – |
| 50 to 100 µM | C=CCn1c(-c2ccc(Br)cc2)csc1=NN=CC=Cc1ccco1 [Compound 306] | – |
| > 100 µM | C=CCNC(=S)NN=Cc1ccc(Cl)cc1 [Compound 261] | – |
| > 100 µM | O=S(=O)(NCc1ccccc1)NCc1ccccc1 [Compound 119] | – |
| > 100 µM | C=CCn1c(-c2ccc([N+](=O)[O-])cc2)csc1=NN=CC=Cc1ccc([N+](=O)[O-])s1 [Compound 131] | – |
| > 100 µM | O=C(CBr)c1csc(=NN=Cc2ccccc2)n1-c1ccccc1 [Compound 775] | – |
| > 100 µM | C=CCNC(=S)NN=Cc1ccc2c(c1)OCO2 [Compound 280] | – |
| > 100 µM | O=C1C(=Cc2ccco2)CCCC1=Cc1ccco1 [Compound 808] | – |
| > 100 µM | O=C(O)c1ccc(Cl)[n+]([O-])c1 [Compound 472] | – |
| > 100 µM | NN1CCSCC1 [Compound 616] | – |
| 50 to 100 µM | O=C1C(=CC=Cc2ccco2)CCC1=CC=Cc1ccco1 [Compound 1223] | – |
| 50 to 100 µM | CN1C/C(=C\C=C\c2ccccc2)C(=O)/C(=C/C=C/c2ccccc2)C1 [Compound 1284] | – |
| > 100 µM | CN(C)CCCCCn1nc(O)c2cc([N+](=O)[O-])ccc21 [Compound 477] | – |
| > 100 µM | O=c1c2cc([N+](=O)[O-])ccc2n2n1CCCCC2 [Compound 637] | – |
| – | CCCCN1C(=O)C(=Cc2ccc([N+](=O)[O-])s2)C(=O)N(CCCC)S1(=O)=O [Compound 1148] | IC50 [1, 3]: < 50 µM; IC50 [1, 4]: 15 ± 5 µM; IC50 ([2]; incubation time 4 h): 12 ± 2 µM; SOMULES SEVERITY SCORE (S. mansoni somules; 24 h): 0; SOMULES SEVERITY SCORE (S. mansoni somules; 48 h): 1; SOMULES SEVERITY SCORE (S. mansoni somules; 3d): 0 |
| > 100 µM | O=C(C=CC=Cc1cccs1)C=CC=Cc1cccs1 [Compound 798] | – |
| > 100 µM | O=C1C(=Cc2cccs2)CCC1=Cc1cccs1 [Compound 1248] | – |
| > 100 µM | CCOC(=O)c1cc2c(n1CC)C(=O)C(Oc1ccc(Cl)cc1)=CC2=O [Compound 1129] | – |
| > 100 µM | C=CCn1c(-c2ccc(OC)cc2)csc1=NN=Cc1ccc([N+](=O)[O-])s1 [Compound 132] | – |

| SMILES | IC50 [1, 5] | other results |
| --- | --- | --- |
| C=CCN1C(=O)CSC1=NN=Cc1ccc2c(c1)[n+]([O-])c(-c1ccccc1)c(C(=O)Nc1ccccc1)[n+]2[O-] [Compound 303] | > 100 µM | SOMULES SEVERITY SCORE (S. mansoni somules; 24 h): 0; SOMULES SEVERITY SCORE (S. mansoni somules; 48 h): 4; SOMULES SEVERITY SCORE (S. mansoni somules; 3d): 4; ADULTS SEVERITY SCORE (S. mansoni adults; 4 h): 0; ADULTS SEVERITY SCORE (S. mansoni adults; 8 h): 0; ADULTS SEVERITY SCORE (S. mansoni adults; 24 h): 0 |
| C=CCNC(=S)NN=Cc1ccc2c(c1)[n+]([O-])c(C(=O)Nc1ccccc1)c(C)[n+]2[O-] [Compound 490] | > 100 µM | SOMULES SEVERITY SCORE (S. mansoni somules; 24 h): 0; SOMULES SEVERITY SCORE (S. mansoni somules; 48 h): 0; SOMULES SEVERITY SCORE (S. mansoni somules; 3d): 0 |
